Data published in patent publication EP0089538A1, “Optically active derivatives of phenoxy-benzoic acid, process for their preparation and their use as herbicides” (BAYER AG, priority 1982, dated 1983).

What was measured:
Format in all cases: in vivo
Dicotyledoneae [1] = test: Post-emergence test; conditions: average effect on several dicots, % damage vs untreated control after three weeks
Source text: (§1) Post-emergence-Test Lösungsmittel: 5 Gewichtsteile Aceton Emulgator : 1 Gewichtsteil Alkylarylpolyglycolether
(§2) Zur Herstellung einer zweckmäßigen Wirkstoffzubereitung vermischt man 1 Gewichtsteil Wirkstoff mit der angegebenen Menge Lösungsmittel, gibt die angegebene Menge Emulgator zu und verdünnt das Konzentrat mit Wasser auf die gewünschte Konzentration.
(§3) Mit der Wirkstoffzubereitung spritzt man Testpflanzen, welche eine Höhe von 5 - 15 cm haben so, daß die jeweils gewünschten Wirkstoffmengen pro Flächeneinheit ausgebracht werden. Die Konzentration der Spritzbrühe wird so gewählt, daß in 2000 1 Wasser/ha die jeweils gewünschten Wirkstoffmengen ausgebracht werden. Nach drei Wochen wird der Schädigungsgrad der Pflanzen bonitiert in % Schädigung im Vergleich zur Entwicklung der unbehandelten Kontrolle. Es bedeuten: • 0 % = keine Wirkung (wie unbehandelte Kontrolle) 100 % = totale Vernichtung

Rüben [2] = test: Post-emergence test; conditions: % damage vs untreated control after three weeks
Source text: as §1, §2, §3

Monocotyledoneae [3] = test: Post-emergence test; conditions: average effect on several monocots, % damage vs untreated control after three weeks
Source text: as §1, §2, §3

Soja [4] = test: Post-emergence test; conditions: % damage vs untreated control after three weeks
Source text: as §1, §2, §3

Mais [5] = test: Post-emergence test; conditions: % damage vs untreated control after three weeks
Source text: as §1, §2, §3

Dicotyledoneae [6] = test: Pre-emergence test; conditions: average effect on several dicots, % damage vs untreated control after three weeks
Source text: (§4) Pre-emergence-Test Lösungsmittel: 5 Gewichtsteile Aceton Emulgator: 1 Gewichtsteil Alkylarylpolyglycolether
as §2
(§5) Samen der Testpflanzen werden in normalen Boden ausgesät und nach 24 Stunden mit der Wirkstoffzubereitung begossen. Dabei hält man die Wassermenge pro Flächeneinheit zweckmäßigerweise konstant. Die Wirkstoffkonzentration in der Zubereitung spielt keine Rolle, entscheidend ist nur die Aufwandmenge des Wirkstoffs pro Flächeneinheit. Nach drei Wochen wird der Schädigungsgrad der Pflanzen bonitiert in % Schädigung im Vergleich zur Entwicklung der unbehandelten Kontrolle. Es bedeuten: • 0 % = keine Wirkung (wie unbehandelte Kontrolle) 100 % = totale Vernichtung

Rüben [7] = test: Pre-emergence test; conditions: % damage vs untreated control after three weeks
Source text: as §4, §2, §5

Monocotyledoneae [8] = test: Pre-emergence test; conditions: average effect on several monocots, % damage vs untreated control after three weeks
Source text: as §4, §2, §5

Soja [9] = test: Pre-emergence test; conditions: % damage vs untreated control after three weeks
Source text: as §4, §2, §5

Mais [10] = test: Pre-emergence test; conditions: % damage vs untreated control after three weeks
Source text: as §4, §2, §5

Testpflanzen [11] = test: Post-emergence test, overall comparison with racemates; conditions: compared with the corresponding racemic compounds (A) and (B)
Source text: as §1, §2, §3

Testpflanzen [12] = test: Pre-emergence test, overall comparison with racemates; conditions: compared with the corresponding racemic compounds (A) and (B)
Source text: as §4, §2, §5

| Structure (SMILES) | Wirkung (in %) Dicotyledoneae (Dicotyledoneae [1]; 1 kg/ha) | Wirkung (in %) Rüben (Rüben [2]; 1 kg/ha) [%] | Wirkung (in %) Monocotyledoneae (Monocotyledoneae [3]; 1 kg/ha) | Wirkung (in %) Soja (Soja [4]; 1 kg/ha) [%] | Wirkung (in %) Mais (Mais [5]; 1 kg/ha) [%] | Wirkung (in %) Dicotyledoneae (Dicotyledoneae [6]; 1 kg/ha) | Wirkung (in %) Rüben (Rüben [7]; 1 kg/ha) [%] | Wirkung (in %) Monocotyledoneae (Monocotyledoneae [8]; 1 kg/ha) | Wirkung (in %) Soja (Soja [9]; 1 kg/ha) [%] | Wirkung (in %) Mais (Mais [10]; 1 kg/ha) [%] | herbizide Wirksamkeit (Testpflanzen [11]) | herbizide Wirksamkeit (Testpflanzen [12]) | further results |
| --- | --- | --- | --- | --- | --- | --- | --- | --- | --- | --- | --- | --- | --- |
| CCOC(=O)C(C)OC(=O)c1cc(Oc2c(Cl)cc(C(F)(F)F)cc2Cl)ccc1[N+](=O)[O-] (racemic) [(A), 5-(2,6-Dichlor-4-trifluormethyl-phenoxy)-2-nitro-benzoesäure-(1-ethoxycarbonyl-ethyl)-ester, reference compound] | 100% | 100 | 92% | 100 | 95 | 95,6% | 100 | 69,3% | 40 | 10 |  |  |  |
| CCOC(=O)C(C)OC(=O)c1cc(Oc2ccc(C(F)(F)F)cc2Cl)ccc1[N+](=O)[O-] (racemic) [(B), 5-(2-Chlor-4-trifluormethyl-phenoxy)-2-nitro-benzoesäure-(1-ethoxycarbonylethyl)-ester, reference compound] | 99,9% | 100 | 89,1% | 99 | 95 | 81,4% | 100 | 61,4% | 0 | 0 |  |  |  |
| CCOC(=O)[C@H](C)OC(=O)c1cc(Oc2c(Cl)cc(C(F)(F)F)cc2Cl)ccc1[N+](=O)[O-] [(1), 5-(2,6-Dichlor-4-trifluor-methyl-phenoxy)-2-nitrobenzoesäure-(1-ethoxycarbonyl-ethyl)-ester] |  |  |  |  |  |  |  |  |  |  | bessere herbizide Wirksamkeit | bessere herbizide Wirksamkeit | Wirkung (in %) Dicotyledoneae (Dicotyledoneae [1]; 0,45 kg/ha): 99,9%; Wirkung (in %) Rüben (Rüben [2]; 0,45 kg/ha): 100%; Wirkung (in %) Monocotyledoneae (Monocotyledoneae [3]; 0,45 kg/ha): 89,9%; Wirkung (in %) Soja (Soja [4]; 0,45 kg/ha): 100%; Wirkung (in %) Mais (Mais [5]; 0,45 kg/ha): 95%; Wirkung (in %) Dicotyledoneae (Dicotyledoneae [6]; 0,45 kg/ha): 88,6%; Wirkung (in %) Rüben (Rüben [7]; 0,45 kg/ha): 99%; Wirkung (in %) Monocotyledoneae (Monocotyledoneae [8]; 0,45 kg/ha): 42,1%; Wirkung (in %) Soja (Soja [9]; 0,45 kg/ha): 10%; Wirkung (in %) Mais (Mais [10]; 0,45 kg/ha): 0% |
| CCOC(=O)[C@H](C)OC(=O)c1cc(Oc2ccc(C(F)(F)F)cc2Cl)ccc1[N+](=O)[O-] [(2), 5-(2-Chlor-4-trifluormethyl-phenoxy)-2-nitro-benzoesäure-(1-ethoxycarbonyl-ethyl)-ester] |  |  |  |  |  |  |  |  |  |  | bessere herbizide Wirksamkeit | bessere herbizide Wirksamkeit | Wirkung (in %) Dicotyledoneae (Dicotyledoneae [1]; 0,51 kg/ha): 99,9%; Wirkung (in %) Rüben (Rüben [2]; 0,51 kg/ha): 100%; Wirkung (in %) Monocotyledoneae (Monocotyledoneae [3]; 0,51 kg/ha): 83,3%; Wirkung (in %) Soja (Soja [4]; 0,51 kg/ha): 99%; Wirkung (in %) Mais (Mais [5]; 0,51 kg/ha): 100%; Wirkung (in %) Dicotyledoneae (Dicotyledoneae [6]; 0,51 kg/ha): 77,1%; Wirkung (in %) Rüben (Rüben [7]; 0,51 kg/ha): 99%; Wirkung (in %) Monocotyledoneae (Monocotyledoneae [8]; 0,51 kg/ha): 74,1%; Wirkung (in %) Soja (Soja [9]; 0,51 kg/ha): 0%; Wirkung (in %) Mais (Mais [10]; 0,51 kg/ha): 0% |
